# Reference: patent US20240398812A1 (Caraway Therapeutics, Inc., priority 2021, published 2024)
# pEC50: −log10 of the molar value.
# Experiments:
# Type in all cases: cell-based
# TRPML2 = target: T1, TRPML2 (Homo sapiens, UniProt Q8IZK6); experiment: Fluorescent TRPML2 assay (as for TRPML1)
# T1 construct: expressed in transfected cells
# T1 sequence (Q8IZK6 1-566): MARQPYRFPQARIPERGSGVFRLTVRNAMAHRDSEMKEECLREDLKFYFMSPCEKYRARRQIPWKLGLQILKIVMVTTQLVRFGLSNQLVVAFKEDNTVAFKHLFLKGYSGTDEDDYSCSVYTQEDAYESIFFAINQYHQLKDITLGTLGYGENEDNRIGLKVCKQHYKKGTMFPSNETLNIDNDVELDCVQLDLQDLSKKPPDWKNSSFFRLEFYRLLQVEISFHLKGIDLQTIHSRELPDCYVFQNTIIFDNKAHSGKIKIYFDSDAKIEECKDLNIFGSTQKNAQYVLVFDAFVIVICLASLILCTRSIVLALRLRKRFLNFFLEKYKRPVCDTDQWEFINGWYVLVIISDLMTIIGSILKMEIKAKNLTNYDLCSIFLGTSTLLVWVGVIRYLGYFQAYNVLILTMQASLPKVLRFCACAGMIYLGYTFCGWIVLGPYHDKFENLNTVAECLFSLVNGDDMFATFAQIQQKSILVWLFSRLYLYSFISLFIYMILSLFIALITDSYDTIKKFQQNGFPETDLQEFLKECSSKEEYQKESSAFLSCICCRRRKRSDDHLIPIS
# Experimental: HEK-293 Trex cells were stably transfected with a construct consisting of the human coding sequence for TRPML1 cloned into the tet-inducible plasmid pCDNA5 T/O. Mutations were introduced into the TRPML1 sequence to facilitate expression on the cell surface (Silvia Vergarajauregui, Rosa Puertollano Traffic. 2006 March; 7 (3): 337-353). Briefly, the cells are cultured in 150 mm round tissue culture dishes containing 20 mL of media. The day before the assay the cells are rinsed with DPBS —Ca—Mg and then treated briefly with Trypsin-EDTA. The Trypsin-EDTA is diluted with growth media, and cells are counted. 38×10^6 cells are re-plated into 150 mm round tissue culture dishes in media containing 0.5 ug/mL doxycycline to induce expression of hTRPML1.
# The day of the experiment cells are lifted from the plates as above and collected by centrifugation. The cells are then suspended in dye loading buffer consisting of Ringer's solution supplemented with 0.1% Pluronic Acid and 1 micromolar Fluo4-AM dye. Cells are loaded for ˜60 minutes in the dark with occasional mixing. The cells are collected by centrifugation, the loading media aspirated, and the cells resuspended in 25 mL Ringer's solution and incubated ˜60 minutes in the dark. The cells are again collected by centrifugation, rinsed in Ringer's Solution and resuspended to 0.2×10^6 cells/mL in modified Ringer's solution containing 10 mM calcium.
# Compounds are dissolved to a concentration of 10 millimolar with DMSO. Compound plates are created by dispensing compounds into 384 well black wall clear bottom plates (Greiner 781091). Positive and negative controls are included on each plate. Typically, different amounts of each compound are tested ranging from 100 nanoMoles (20 micromolar final concentration) decreasing in half-log steps to 31 picoMoles (6 nanomolar final concentration). Each concentration is typically tested in triplicate.
# 50 microliters of dye-loaded cells are dispensed into each well of the compound assay plate created above. The fluorescence in each well is then determined with an excitation wavelength of 480 nm and an emission wavelength of 540 nm using either a Molecular Devices SpectraMax multimode plate reader or a Hamamatsu FDSS/uCell plate imager.
# The resulting fluorescence for each well is exported as an ascii file and loaded into our LIMS for analysis. The percent activity of each compound at each concentration is determined by comparison to the positive and negative control wells included in each plate.
# Assays for TRPML2 and TRPML3 were performed as above for TRPML1, by substituting the appropriate TRPML2 or TRPML3 subtype for the TRPML1.
# EC50 values were calculated using a non-linear regression of Prism. In the table, “A” indicates an EC50 of less than 100 nM, “B” indicates an EC50 range from 100 nM to 500 nM; “C” indicates an EC50 range from 500 nM to 2 μM; and “D” indicates an EC50 greater than 2 μM.
# human TRPML1 = human TRPML1 (Homo sapiens, UniProt Q9GZU1); experiment: Fluorescent TRPML1 assay (Fluo4-AM calcium fluorescence, HEK-293 Trex cells)
# human TRPML1, sequence (Q9GZU1 whole entry L15A/L16A/L577A/L578A, form open): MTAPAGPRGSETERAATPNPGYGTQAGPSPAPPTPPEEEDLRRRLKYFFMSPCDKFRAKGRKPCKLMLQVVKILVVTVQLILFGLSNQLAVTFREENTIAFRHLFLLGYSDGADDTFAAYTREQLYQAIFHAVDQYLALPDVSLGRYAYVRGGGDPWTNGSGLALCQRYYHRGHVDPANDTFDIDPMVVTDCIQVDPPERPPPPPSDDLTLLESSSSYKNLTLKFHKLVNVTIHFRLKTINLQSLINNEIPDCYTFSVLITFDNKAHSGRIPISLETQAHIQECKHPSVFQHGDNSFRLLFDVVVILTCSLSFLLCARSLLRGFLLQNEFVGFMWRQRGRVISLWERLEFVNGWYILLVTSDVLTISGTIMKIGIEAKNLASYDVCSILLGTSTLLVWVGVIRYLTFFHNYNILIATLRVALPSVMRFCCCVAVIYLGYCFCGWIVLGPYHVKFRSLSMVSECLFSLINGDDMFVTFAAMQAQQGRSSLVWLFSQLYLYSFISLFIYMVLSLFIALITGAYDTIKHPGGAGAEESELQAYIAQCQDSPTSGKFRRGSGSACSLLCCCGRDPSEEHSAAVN
# Method in brief: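 Agonist EC50 from non-linear regression of percent activity versus on-plate controls, calcium signal read at 480/540 nm. Compounds spanned 6 nM–20 μM final in triplicate. Cells: doxycycline-induced HEK-293 Trex with cell-surface human TRPML1 mutant, Fluo4-AM loaded, in Ringer's containing 10 mM calcium.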
# TRPML3 = target: T2, TRPML3 (Homo sapiens, UniProt Q8TDD5); experiment: Fluorescent TRPML3 assay (as for TRPML1)
# T2 construct: expressed in transfected cells
# T2 sequence (Q8TDD5 1-553): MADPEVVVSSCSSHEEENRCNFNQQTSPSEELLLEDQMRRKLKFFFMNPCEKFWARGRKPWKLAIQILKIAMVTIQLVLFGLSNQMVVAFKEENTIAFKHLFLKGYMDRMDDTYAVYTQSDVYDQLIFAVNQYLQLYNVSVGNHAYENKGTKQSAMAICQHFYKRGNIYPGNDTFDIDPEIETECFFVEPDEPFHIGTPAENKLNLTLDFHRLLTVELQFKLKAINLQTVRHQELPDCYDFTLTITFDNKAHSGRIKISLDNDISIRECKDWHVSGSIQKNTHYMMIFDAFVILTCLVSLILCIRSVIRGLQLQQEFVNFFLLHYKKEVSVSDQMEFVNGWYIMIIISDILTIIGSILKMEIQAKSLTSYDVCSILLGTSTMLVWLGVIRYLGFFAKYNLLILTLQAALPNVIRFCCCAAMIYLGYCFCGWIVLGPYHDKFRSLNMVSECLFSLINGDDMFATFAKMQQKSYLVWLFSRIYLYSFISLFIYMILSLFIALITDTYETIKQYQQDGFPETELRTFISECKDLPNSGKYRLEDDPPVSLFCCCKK
# Method in brief: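 EC50 came from non-linear regression of percent activity, set against on-plate positive and negative controls, using Fluo4 fluorescence (ex 480, em 540 nm). Compounds ran in triplicate from 6 nM to 20 µM final in half-log steps. Doxycycline-induced (0.5 ug/mL) HEK-293 Trex cells expressing surface-directed mutant channel were in 10 mM calcium Ringer's.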
SMILES,"pEC50 (TRPML2; Table 3, compounds 201-283)","pEC50 (human TRPML1; Table 3, compounds 201-283)","pEC50 (TRPML3; Table 3, compounds 201-283)","pEC50 (TRPML2; Table 3, compounds 101-177)","pEC50 (human TRPML1; Table 3, compounds 101-177)","pEC50 (TRPML3; Table 3, compounds 101-177)"
"COC(C)(C)C(=O)N1C[C@H](C)N(c2ncnc3c2c(C2CC2)cn3-c2cccc(F)c2)C[C@H]1C [Compound 246, 1-((2R,5S)-4-(5-cyclopropyl-7-(3-fluorophenyl)-7H-pyrrolo[2,3-d]pyrimidin-4-yl)-2,5-dimethylpiperazin-1-yl)-2-methoxy-2-methylpropan-1-one]",5.70 to 6.30,6.30 to 7.00,6.30 to 7.00,,,
"C[C@@H]1CN(c2ncnc3c2c(C2CC2)cn3-c2cccc(F)c2)[C@@H](C)CN1C(=O)C(C)(C)C [Compound 214, 1-((2R,5S)-4-(5-cyclopropyl-7-(3-fluorophenyl)-7H-pyrrolo[2,3-d]pyrimidin-4-yl)-2,5-dimethylpiperazin-1-yl)-2,2-dimethylpropan-1-one]",< 5.70,> 7.00,5.70 to 6.30,,,
"CCCN(CC)c1cn(-c2cc(C#N)ccn2)c2ncnc(N3CCN(C(=O)CC(C)(C)C)C[C@@H]3C)c12 [Compound 166, (S)-2-(4-(4-(3,3-dimethylbutanoyl)-2-methylpiperazin-1-yl)-5-(ethyl(propyl)amino)-7H-pyrrolo [2,3-d]pyrimidin-7-yl)isonicotinonitrile]",,,,6.30 to 7.00,> 7.00,> 7.00
"CC(C)C(=O)N1CCN(c2ncnc3c2c(-c2ccccc2F)cn3-c2cc(C#N)ccn2)C(C)(C)C1 [Compound 149, 2-(5-(2-fluorophenyl)-4-(4-isobutyryl-2,2-dimethylpiperazin-1-yl)-7H-pyrrolo[2,3-d]pyrimidin-7-yl)isonicotinonitrile]",,,,> 7.00,> 7.00,> 7.00
"C[C@@H]1CN(c2ncnc3c2c(C2CCC2)cn3-c2cccc(Cl)c2)[C@@H](C)CN1C(=O)C(C)(C)C(F)(F)F [Compound 257, 1-((2R,5S)-4-(7-(3-chlorophenyl)-5-cyclobutyl-7H-pyrrolo[2,3-d]pyrimidin-4-yl)-2,5-dimethylpiperazin-1-yl)-3,3,3-trifluoro-2,2-dimethylpropan-1-one]",6.30 to 7.00,> 7.00,5.70 to 6.30,,,
"C[C@@H]1CN(c2ncnc3c2c(C2CC2)cn3-c2cccc(Cl)c2)[C@@H](C)CN1C(=O)C(C)(C)C [Compound 206, 1-((2R,5S)-4-(7-(3-chlorophenyl)-5-cyclopropyl-7H-pyrrolo[2,3-d]pyrimidin-4-yl)-2,5-dimethylpiperazin-1-yl)-2,2-dimethylpropan-1-one]",6.30 to 7.00,> 7.00,> 7.00,,,
"CC(C)C(=O)N1CCN(c2ncnc3c2c(N2CCCC2)cn3-c2cc(C#N)ccn2)[C@@H](C)C1 [Compound 144, (S)-2-(4-(4-isobutyryl-2-methylpiperazin-1-yl)-5-(pyrrolidin-1-yl)-7H-pyrrolo[2,3-d]pyrimidin-7-yl)isonicotinonitrile]",,,,6.30 to 7.00,> 7.00,6.30 to 7.00

# Now from value to molecule:
"pEC50 (TRPML2; Table 3, compounds 201-283)","pEC50 (human TRPML1; Table 3, compounds 201-283)","pEC50 (TRPML3; Table 3, compounds 201-283)","pEC50 (TRPML2; Table 3, compounds 101-177)","pEC50 (human TRPML1; Table 3, compounds 101-177)","pEC50 (TRPML3; Table 3, compounds 101-177)",SMILES
,,,> 7.00,> 7.00,> 7.00,"C[C@H]1CN(C(=O)C(C)(C)C)CCN1c1ncnc2c1c(-c1ccccc1F)cn2-c1cc(C#N)ccn1 [Compound 103, (S)-2-(5-(2-fluorophenyl)-4-(2-methyl-4-pivaloylpiperazin-1-yl)-7H-pyrrolo[2,3-d]pyrimidin-7-yl)isonicotinonitrile]"
6.30 to 7.00,> 7.00,> 7.00,,,,"C[C@@H]1CN(c2ncnc3c2c(C(F)(F)F)cn3-c2cc(C#N)ccn2)[C@@H](C)CN1C(=O)C(C)(C)C [Compound 207, 2-(4-((2S,5R)-2,5-dimethyl-4-pivaloylpiperazin-1-yl)-5-(trifluoromethyl)-7H-pyrrolo[2,3-d]pyrimidin-7-yl)isonicotinonitrile]"
> 7.00,> 7.00,> 7.00,,,,"COC(C)(C)C(=O)N1C[C@H](C)N(c2ncnc3c2c(-c2ccccc2F)cn3-c2cc(C#N)ccn2)C[C@H]1C [Compound 232, 2-(5-(2-fluorophenyl)-4-((2S,5R)-4-(2-methoxy-2-methylpropanoyl)-2,5-dimethylpiperazin-1-yl)-7H-pyrrolo[2,3-d]pyrimidin-7-yl)isonicotinonitrile]"
6.30 to 7.00,> 7.00,> 7.00,,,,"COC1(C(=O)N2C[C@H](C)N(c3ncnc4c3c(-c3ccccc3)cn4-c3cc(C#N)ccn3)C[C@H]2C)CC1 [Compound 283, 2-(4-((2S,5R)-4-(1-methoxycyclopropane-1-carbonyl)-2,5-dimethylpiperazin-1-yl)-5-phenyl-7H-pyrrolo[2,3-d]pyrimidin-7-yl)isonicotinonitrile]"
,,,6.30 to 7.00,> 7.00,> 7.00,"CC(C)(O)C(=O)N1CCN(c2ncnc3c2c(-c2ccccc2F)cn3-c2cc(C#N)ccn2)C(C)(C)C1 [Compound 170, 2-(5-(2-fluorophenyl)-4-(4-(2-hydroxy-2-methylpropanoyl)-2,2-dimethylpiperazin-1-yl)-7H-pyrrolo[2,3-d]pyrimidin-7-yl)isonicotinonitrile]"
,,,> 7.00,> 7.00,> 7.00,"C[C@H]1CN(C(=O)C2(F)CC2)CCN1c1ncnc2c1c(-c1ccccc1F)cn2-c1cc(C#N)ccn1 [Compound 115, (S)-2-(4-(4-(1-fluorocyclopropane-1-carbonyl)-2-methylpiperazin-1-yl)-5-(2-fluorophenyl)-7H-pyrrolo[2,3-d]pyrimidin-7-yl)isonicotinonitrile]"
5.70 to 6.30,,6.30 to 7.00,,,,"[2H]C([2H])([2H])[C@@H]1CN(c2ncnc3c2c(-c2ccccc2F)cn3-c2cc(C#N)ccn2)[C@@H](C)CN1C(=O)C(C)C (single isomer, unassigned) [Compound 281]"
> 7.00,,> 7.00,,,,"[2H]C([2H])([2H])C([2H])(C(=O)N1C[C@H](C)N(c2ncnc3c2c(-c2ccccc2F)cn3-c2cc(C#N)ccn2)C[C@H]1C)C([2H])([2H])[2H] (single isomer, unassigned) [Compound 233]"
6.30 to 7.00,,> 7.00,,,,"[2H]C([2H])([2H])C(C(=O)N1C[C@H](C)N(c2ncnc3c2c(-c2ccccc2F)cn3-c2cc(C#N)ccn2)C[C@H]1C)C([2H])([2H])[2H] (single isomer, unassigned) [Compound 234]"
